{"source": "PubChem BioAssay (NCI)", "experiment_in_all_cases": "NCI anticancer screen, dose series, 48 h", "key": {"RXF 393 renal": {"test_system": "RXF 393 renal"}, "M14 melanoma": {"test_system": "M14 melanoma"}, "MDA-MB-231 breast": {"test_system": "MDA-MB-231 breast"}, "T-47D breast": {"test_system": "T-47D breast"}, "A549 NSCLC": {"test_system": "A549 NSCLC"}, "SK-MEL-2 melanoma": {"test_system": "SK-MEL-2 melanoma"}, "SN12C renal": {"test_system": "SN12C renal"}, "A498 renal": {"test_system": "A498 renal"}, "HCC-2998 colon": {"test_system": "HCC-2998 colon"}, "HL-60(TB) leukemia": {"test_system": "HL-60(TB) leukemia"}, "U251 CNS": {"test_system": "U251 CNS"}, "IGROV1 ovarian": {"test_system": "IGROV1 ovarian"}, "MALME-3M melanoma": {"test_system": "MALME-3M melanoma"}, "SNB-75 CNS": {"test_system": "SNB-75 CNS"}, "MDA-MB-435": {"test_system": "MDA-MB-435"}, "NCI-H460 lung": {"test_system": "NCI-H460 lung"}, "NCI-H522 lung": {"test_system": "NCI-H522 lung"}, "MCF7 breast": {"test_system": "MCF7 breast"}, "ACHN renal": {"test_system": "ACHN renal"}, "SF-268 CNS": {"test_system": "SF-268 CNS"}, "HT29 colon": {"test_system": "HT29 colon"}, "SW-620 colon": {"test_system": "SW-620 colon"}, "K-562 leukemia": {"test_system": "K-562 leukemia"}, "BT-549 breast": {"test_system": "BT-549 breast"}, "CCRF-CEM leukemia": {"test_system": "CCRF-CEM leukemia"}, "SNB-19 CNS": {"test_system": "SNB-19 CNS"}, "UACC-257 melanoma": {"test_system": "UACC-257 melanoma"}, "OVCAR-4 ovarian": {"test_system": "OVCAR-4 ovarian"}, "RPMI-8226 leukemia": {"test_system": "RPMI-8226 leukemia"}}, "note": "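In this assay, cells in 96-well plates receive the compound at five concentrations for 48 hours. Endpoints are linearly interpolated between the surrounding concentrations. GI50: concentration for 50% inhibition of growth. At the TGI there is no net growth.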"}
{"smiles": "CCC(=O)c1c(C(F)(F)F)n([O-])c2ccccc2[n+]1=O", "values": [{"measurement": "GI50", "setting": "RXF 393 renal", "result": 1.67, "unit": "µM"}, {"measurement": "TGI", "setting": "RXF 393 renal", "result": 10.2, "unit": "µM"}, {"measurement": "GI50", "setting": "M14 melanoma", "result": 1.7, "unit": "µM"}, {"measurement": "TGI", "setting": "M14 melanoma", "result": 6.19, "unit": "µM"}, {"measurement": "GI50", "setting": "MDA-MB-231 breast", "result": 2.23, "unit": "µM"}, {"measurement": "TGI", "setting": "MDA-MB-231 breast", "result": 7.93, "unit": "µM"}, {"measurement": "GI50", "setting": "T-47D breast", "result": 2.27, "unit": "µM"}, {"measurement": "TGI", "setting": "T-47D breast", "result": 31.1, "unit": "µM"}, {"measurement": "GI50", "setting": "A549 NSCLC", "result": 2.3, "unit": "µM"}, {"measurement": "TGI", "setting": "A549 NSCLC", "result": 11.4, "unit": "µM"}, {"measurement": "GI50", "setting": "SK-MEL-2 melanoma", "result": 14.9, "unit": "µM"}, {"measurement": "TGI", "setting": "SK-MEL-2 melanoma", "result": "> 100", "unit": "µM"}, {"measurement": "GI50", "setting": "SN12C renal", "result": 1.98, "unit": "µM"}, {"measurement": "TGI", "setting": "SN12C renal", "result": 7.29, "unit": "µM"}, {"measurement": "GI50", "setting": "A498 renal", "result": 2.67, "unit": "µM"}, {"measurement": "TGI", "setting": "A498 renal", "result": 9.03, "unit": "µM"}, {"measurement": "GI50", "setting": "HCC-2998 colon", "result": 1.68, "unit": "µM"}, {"measurement": "TGI", "setting": "HCC-2998 colon", "result": 6.31, "unit": "µM"}, {"measurement": "GI50", "setting": "HL-60(TB) leukemia", "result": 3.03, "unit": "µM"}, {"measurement": "TGI", "setting": "HL-60(TB) leukemia", "result": "> 100", "unit": "µM"}, {"measurement": "GI50", "setting": "U251 CNS", "result": 2.16, "unit": "µM"}, {"measurement": "TGI", "setting": "U251 CNS", "result": 13, "unit": "µM"}, {"measurement": "GI50", "setting": "IGROV1 ovarian", "result": 1.38, "unit": "µM"}, {"measurement": "TGI", "setting": "IGROV1 ovarian", "result": "> 100", "unit": "µM"}, {"measurement": "GI50", "setting": "MALME-3M melanoma", "result": 1.69, "unit": "µM"}, {"measurement": "TGI", "setting": "MALME-3M melanoma", "result": 6.16, "unit": "µM"}, {"measurement": "GI50", "setting": "SNB-75 CNS", "result": 3.79, "unit": "µM"}, {"measurement": "TGI", "setting": "SNB-75 CNS", "result": 24.8, "unit": "µM"}, {"measurement": "GI50", "setting": "MDA-MB-435", "result": 2.41, "unit": "µM"}, {"measurement": "TGI", "setting": "MDA-MB-435", "result": 10.4, "unit": "µM"}, {"measurement": "GI50", "setting": "NCI-H460 lung", "result": 0.695, "unit": "µM"}, {"measurement": "TGI", "setting": "NCI-H460 lung", "result": 2.6, "unit": "µM"}, {"measurement": "GI50", "setting": "NCI-H522 lung", "result": 2.36, "unit": "µM"}, {"measurement": "TGI", "setting": "NCI-H522 lung", "result": "> 21.4", "unit": "µM"}, {"measurement": "GI50", "setting": "MCF7 breast", "result": 1.08, "unit": "µM"}, {"measurement": "TGI", "setting": "MCF7 breast", "result": 6.72, "unit": "µM"}, {"measurement": "GI50", "setting": "ACHN renal", "result": 1.09, "unit": "µM"}, {"measurement": "TGI", "setting": "ACHN renal", "result": 3.13, "unit": "µM"}, {"measurement": "GI50", "setting": "SF-268 CNS", "result": 1.22, "unit": "µM"}, {"measurement": "TGI", "setting": "SF-268 CNS", "result": 6.34, "unit": "µM"}, {"measurement": "GI50", "setting": "HT29 colon", "result": 1.41, "unit": "µM"}, {"measurement": "TGI", "setting": "HT29 colon", "result": 11, "unit": "µM"}, {"measurement": "GI50", "setting": "SW-620 colon", "result": 2.65, "unit": "µM"}, {"measurement": "TGI", "setting": "SW-620 colon", "result": 17.4, "unit": "µM"}, {"measurement": "GI50", "setting": "K-562 leukemia", "result": 1.35, "unit": "µM"}, {"measurement": "TGI", "setting": "K-562 leukemia", "result": 33.3, "unit": "µM"}, {"measurement": "GI50", "setting": "BT-549 breast", "result": 2, "unit": "µM"}, {"measurement": "TGI", "setting": "BT-549 breast", "result": 6.13, "unit": "µM"}, {"measurement": "GI50", "setting": "CCRF-CEM leukemia", "result": 0.621, "unit": "µM"}, {"measurement": "TGI", "setting": "CCRF-CEM leukemia", "result": 10.5, "unit": "µM"}, {"measurement": "GI50", "setting": "SNB-19 CNS", "result": 5.07, "unit": "µM"}, {"measurement": "TGI", "setting": "SNB-19 CNS", "result": 32.6, "unit": "µM"}, {"measurement": "GI50", "setting": "UACC-257 melanoma", "result": 10.8, "unit": "µM"}, {"measurement": "TGI", "setting": "UACC-257 melanoma", "result": 35.3, "unit": "µM"}, {"measurement": "GI50", "setting": "OVCAR-4 ovarian", "result": 5.65, "unit": "µM"}, {"measurement": "TGI", "setting": "OVCAR-4 ovarian", "result": 31.2, "unit": "µM"}, {"measurement": "GI50", "setting": "RPMI-8226 leukemia", "result": 0.694, "unit": "µM"}, {"measurement": "TGI", "setting": "RPMI-8226 leukemia", "result": 3.69, "unit": "µM"}]}
